pIC50: −log10 of the molar value.
Target: T1, human CARM1 (PRMT4) (Flag- and His-tagged) (Homo sapiens, UniProt Q86X55)
T1 construct: Flag-CARM1-His; made in house; host or cells: HEK 293F cells (BacMam baculovirus)
T1 sequence (Q86X55 1-585 isoform Q86X55-1): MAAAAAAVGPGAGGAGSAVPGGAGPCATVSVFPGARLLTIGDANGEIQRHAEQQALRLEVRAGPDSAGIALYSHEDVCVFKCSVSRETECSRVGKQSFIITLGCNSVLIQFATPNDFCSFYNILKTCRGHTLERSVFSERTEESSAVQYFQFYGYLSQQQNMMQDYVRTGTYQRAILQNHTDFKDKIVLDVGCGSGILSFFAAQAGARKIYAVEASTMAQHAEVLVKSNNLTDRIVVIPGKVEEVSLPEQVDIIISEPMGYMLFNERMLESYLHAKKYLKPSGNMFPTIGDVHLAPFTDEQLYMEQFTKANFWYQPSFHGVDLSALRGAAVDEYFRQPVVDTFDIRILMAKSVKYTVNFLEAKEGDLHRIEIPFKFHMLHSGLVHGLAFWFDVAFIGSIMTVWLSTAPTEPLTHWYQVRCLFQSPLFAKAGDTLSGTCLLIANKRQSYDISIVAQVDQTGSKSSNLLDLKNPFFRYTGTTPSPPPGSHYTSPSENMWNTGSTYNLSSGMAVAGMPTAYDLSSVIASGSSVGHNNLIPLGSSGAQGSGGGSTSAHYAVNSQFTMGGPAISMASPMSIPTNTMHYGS
Experiment: CARM1 Biochemical Assay (3H-SAM Flashplate, peptide substrate)
Conditions: single experiment or average of multiple experiments
Text: General Materials. S-adenosylmethionine (SAM), S-adenosylhomocysteine (SAH), bicine, Tween20, dimethylsulfoxide (DMSO), bovine skin gelatin (BSG), sodium butyrate and Tris(2-carboxyethyl)phosphine hydrochloride solution (TCEP) were purchased from Sigma-Aldrich at the highest level of purity possible. ^3H-SAM was purchase from American Radiolabeled Chemicals with a specific activity of 80 Ci/mmol. 384-well streptavidin Flashplates were purchased from PerkinElmer.
Substrates. Peptide representative of human histone H3 residues 16-30 was synthesized with an N-terminal linker-affinity tag motif and a C-terminal amide cap by 21st Century Biochemicals. The peptide was purified by high-performance liquid chromatography (HPLC) to greater than 95% purity and confirmed by liquid chromatography mass spectrometry (LC-MS). The sequence was Biot-Ahx-[…]-amide and contained a monomethylated arginine at position 26 (SEQ ID NO.:14).
Molecular Biology: Human CARM1 (PRMT4) (NM_199141.1) transcript clone was amplified from an HEK 293 cDNA library, incorporating a flanking 5′ sequence encoding a FLAG tag ([…]) (SEQ ID NO.:6) fused directly to Ala 2 of CARM1 and 3′ sequence encoding a hexa His sequence ([…]) (SEQ ID NO.:15) fused directly to Ser 608. The gene sequence encoding isoform1 containing a deletion of amino acids 539-561 was amplified subsequently and subcloned into pFastBacMam (Viva Biotech).
Protein Expression. Recombinant baculovirus were generated according to Bac-to-Bac kit instructions (Life Technologies). […] Infections were carried out at 37° C. for 48 hours, harvested by centrifugation, and stored at −80° C. for purification.
Protein Purification. […] Column was washed with 500 mM NaCl in buffer A and Flag-CARM1-His was eluted with 200 ug/ml FLAG peptide in buffer A. Pooled fractions were dialyzed in 20 mM Tris, 150 mM NaCl, 5% glycerol and 1 mM DTT, pH 7.8. The purity of recovered protein was 94.
General Procedure for CARM1 Enzyme Assays on Peptide Substrates. The assays were all performed in a buffer consisting of 20 mM Bicine (pH=7.6), 1 mM TCEP, 0.005% BSG, and 0.002% Tween 20, prepared on the day of use. Compounds in 100% DMSO (1 ul) were spotted into a polypropylene 384-well V-bottom plates (Greiner) using a Platemate Plus outfitted with a 384-channel head (Thermo Scientific). DMSO (1 ul) was added to Columns 11, 12, 23, 24, rows A-H for the maximum signal control and 1 ul of SAH, a known product and inhibitor of CARM1, was added to columns 11, 12, 23, 24, rows I-P for the minimum signal control. A cocktail (40 ul) containing the CARM1 enzyme was added by Multidrop Combi (Thermo-Fisher). The compounds were allowed to incubate with CARM1 for 30 min at room temperature, then a cocktail (10 ul) containing ^3H-SAM and peptide was added to initiate the reaction (final volume=51 ul). The final concentrations of the components were as follows: CARM1 was 0.25 nM, ^3H-SAM was 30 nM, peptide was 250 nM, SAH in the minimum signal control wells was 1 mM, and the DMSO concentration was 2%. The assays were stopped by the addition of non-radiolabeled SAM (10 ul) to a final concentration of 300 uM, which dilutes the ^3H-SAM to a level where its incorporation into the peptide substrate is no longer detectable. 50 ul of the reaction in the 384-well polypropylene plate was then transferred to a 384-well Flashplate and the biotinylated peptides were allowed to bind to the streptavidin surface for at least 1 hour before being washed once with 0.1% Tween20 in a Biotek ELx405 plate washer. The plates were then read in a PerkinElmer TopCount plate reader to measure the quantity of ^3H-labeled peptide bound to the Flashplate surface, measured as disintegrations per minute (dpm) or alternatively, referred to as counts per minute (cpm).
Where dpm=disintegrations per minute, cmpd=signal in assay well, and min and max are the respective minimum and maximum signal controls. […]

- pIC50: 5.91
Compound: CNCCN(C)Cc1c[nH]nc1C#Cc1ccccc1 [Compound 3]
